These results are taken from patent US20230233569A1 (Revolution Medicines, Inc., priority 2020, published 2023).

Each structure is given as a SMILES string.

The target in test [1] is KRAS Q61H (Homo sapiens, UniProt P01116+P62937, Q61H). In words: Disruption of BRAF RBD interaction with Ras (FRET / MOA assay, with Cyclophilin A). The format is biochemical. Particulars: KRAS Q61H; read-out: KRAS Q61H FRET data IC50. The method in brief: (§1)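 IC50 reflects compound-driven Ras:Cyclophilin A ternary complex displacing BRAF RBD, read as lowered TR-FRET ratio relative to DMSO after Eu anti-His (10 nM) and APC anti-GST (50 nM) detection for 1.5 h. Prior incubation 3 h, 25° C, with 12.5 nM GMPPNP-loaded Ras, 50 nM BRAF RBD, 25 μM Cyclophilin A; top compound 30 μM.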

The target in test [2] is NRAS Q61K (Homo sapiens, UniProt P01111+P62937, Q61K). The description is as above. Conditions: NRAS Q61K; read-out: NRAS Q61K FRET data IC50. The format is biochemical. The method in brief: as §1
Test [3] deals with NRAS WT (Homo sapiens, UniProt P01111+P62937). The description is as above. The format is biochemical. Particulars: NRAS WT; read-out: NRAS WT FRET data IC50. The method in brief:
as §1

Test [4] addresses NRAS Q61R (Homo sapiens, UniProt P01111+P62937, Q61R). The test is described as above. It is filed as biochemical. Conditions: NRAS Q61R; read-out: NRAS Q61R FRET data IC50. The procedure, abridged: as §1
Test [5] concerns the target KRAS WT (Homo sapiens, UniProt P01116+P62937). The description is as above. The format is biochemical. Conditions: KRAS WT; read-out: KRAS WT FRET data IC50. The method in brief:
(§2)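 Here, compound titrations (ten points, factor 3, from 30 μM final) act on nucleotide-bound K-Ras and Cyclophilin A, and ternary complex formation disrupts the RAF RBD interaction.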

The target of test [6] is NRAS G12C (Homo sapiens, UniProt P01111+P62937, G12C). The description is as above. It is filed as biochemical. Conditions: NRAS G12C; read-out: NRAS G12C FRET data IC50.
The target of test [7] is KRAS G12V (Homo sapiens, UniProt P01116+P62937, G12V). Described as above. The format is biochemical. Conditions: KRAS G12V; read-out: KRAS G12V FRET data IC50. The method in brief: as §2
Test [8] deals with KRAS G12D (Homo sapiens, UniProt P01116+P62937, G12D). Described as above. The format is biochemical. Particulars: read-out: KRAS G12D FRET data, IC50. The method in brief:
as §2

In test [9] the target is KRAS G13C (Homo sapiens, UniProt P01116+P62937, G13C). Described as above. The format is biochemical. Particulars: read-out: KRAS G13C FRET data, IC50. The procedure, abridged: as §2
Test [10] has as its target KRAS G12S (Homo sapiens, UniProt P01116+P62937, G12S). The description is as above. It is filed as biochemical. Conditions: read-out: KRAS G12S FRET data, IC50. The procedure, abridged:
as §2

Test [11] has as its target KRAS G13D (Homo sapiens, UniProt P01116+P62937, G13D). The test is described as above. Conditions: KRAS G13D; read-out: KRAS G13D FRET data IC50. The format is biochemical. The procedure, abridged: as §2
In test [12] the target is KRAS G12C (Homo sapiens, UniProt P01116+P62937, G12C). Described as above. It is filed as biochemical. Particulars: read-out: KRAS G12C FRET data, IC50. The method in brief: as §2
Test [13] relates to NCI-H358 (K-Ras G12C). The test can be described thus: CellTiter-Glo cell viability assay, 5-day treatment. Particulars: Homo sapiens, NCI-H358, 120 h, 5-day treatment; read-out: H358 Cell Viability assay data (K-Ras G12C, IC50). The format is cell-based. The method in brief: (§3)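 Luminescence read-out after 5 days of compound exposure, with plates first brought to room temperature for roughly 30 minutes. Values are percent of averaged DMSO wells, fitted by four-parameter logistic regression.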
On the technique in general: In ATP-based viability assays light output follows the ATP content of the culture.

Test [14] concerns Capan-1 (K-Ras G12V). The description is as above. The format is cell-based. Conditions: Homo sapiens, CAPAN-1, 120 h, 5-day treatment; read-out: Capan-1 Cell Viability assay data (K-Ras G12V, IC50). The procedure, abridged: as §3

Chain of KRAS WT (P01116 1-169 isoform P01116-2 limits assumed): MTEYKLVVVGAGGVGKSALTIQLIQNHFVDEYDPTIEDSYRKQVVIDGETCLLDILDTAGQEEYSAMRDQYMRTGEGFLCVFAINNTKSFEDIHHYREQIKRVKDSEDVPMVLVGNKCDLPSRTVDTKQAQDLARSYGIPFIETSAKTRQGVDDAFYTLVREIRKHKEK
Chain of KRAS WT (P62937 whole entry): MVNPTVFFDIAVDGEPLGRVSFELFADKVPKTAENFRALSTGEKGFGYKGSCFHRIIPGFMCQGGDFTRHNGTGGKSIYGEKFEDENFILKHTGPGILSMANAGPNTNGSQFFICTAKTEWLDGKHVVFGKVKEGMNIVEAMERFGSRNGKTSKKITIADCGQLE
Chain of KRAS G13D (P01116 1-169 isoform P01116-2 G13D limits assumed): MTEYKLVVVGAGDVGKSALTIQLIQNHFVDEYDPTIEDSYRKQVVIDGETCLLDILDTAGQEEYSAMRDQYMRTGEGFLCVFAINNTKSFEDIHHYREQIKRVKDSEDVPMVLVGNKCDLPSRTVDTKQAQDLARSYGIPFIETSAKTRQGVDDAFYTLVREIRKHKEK
Chain of KRAS G13D (P62937 whole entry): as the sequence (P62937 whole entry) above
Chain of NRAS WT (P01111 whole entry): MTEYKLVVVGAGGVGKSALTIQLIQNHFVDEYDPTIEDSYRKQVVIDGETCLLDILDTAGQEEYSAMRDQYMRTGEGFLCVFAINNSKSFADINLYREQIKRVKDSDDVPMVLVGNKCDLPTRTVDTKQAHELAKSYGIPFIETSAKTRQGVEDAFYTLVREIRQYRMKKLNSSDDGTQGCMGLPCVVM
Chain of NRAS WT (P62937 whole entry): as the sequence (P62937 whole entry) above
Chain of KRAS G12S (P01116 1-169 isoform P01116-2 G12S limits assumed): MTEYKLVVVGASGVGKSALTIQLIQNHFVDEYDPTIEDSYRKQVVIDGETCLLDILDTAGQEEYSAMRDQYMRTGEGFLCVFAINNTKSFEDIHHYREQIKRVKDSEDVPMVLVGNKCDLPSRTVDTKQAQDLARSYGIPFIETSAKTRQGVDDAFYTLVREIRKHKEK
Chain of KRAS G12S (P62937 whole entry): as the sequence (P62937 whole entry) above
Chain of KRAS G13C (P01116 1-169 isoform P01116-2 G13C): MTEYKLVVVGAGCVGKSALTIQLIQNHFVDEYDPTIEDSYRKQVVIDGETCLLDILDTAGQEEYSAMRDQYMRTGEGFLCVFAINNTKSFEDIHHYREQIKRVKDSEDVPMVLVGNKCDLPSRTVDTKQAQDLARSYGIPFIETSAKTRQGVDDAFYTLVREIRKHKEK
Chain of KRAS G13C (P62937 whole entry): as the sequence (P62937 whole entry) above
Chain of KRAS G12C (P01116 1-169 isoform P01116-2 G12C): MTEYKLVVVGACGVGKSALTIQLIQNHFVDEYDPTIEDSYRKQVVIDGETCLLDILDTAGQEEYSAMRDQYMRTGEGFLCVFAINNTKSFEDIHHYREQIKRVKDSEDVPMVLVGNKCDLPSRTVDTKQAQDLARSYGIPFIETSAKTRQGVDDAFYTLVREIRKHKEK
Chain of KRAS G12C (P62937 whole entry): as the sequence (P62937 whole entry) above
Chain of NRAS Q61R (P01111 whole entry Q61R): as the sequence (P01111 whole entry) above, with Q61R counted along it
Chain of NRAS Q61R (P62937 whole entry): as the sequence (P62937 whole entry) above
Chain of NRAS G12C (P01111 whole entry G12C): as the sequence (P01111 whole entry) above, with G12C counted along it
Chain of NRAS G12C (P62937 whole entry): as the sequence (P62937 whole entry) above
Chain of KRAS Q61H (P01116 1-169 isoform P01116-2 Q61H limits assumed): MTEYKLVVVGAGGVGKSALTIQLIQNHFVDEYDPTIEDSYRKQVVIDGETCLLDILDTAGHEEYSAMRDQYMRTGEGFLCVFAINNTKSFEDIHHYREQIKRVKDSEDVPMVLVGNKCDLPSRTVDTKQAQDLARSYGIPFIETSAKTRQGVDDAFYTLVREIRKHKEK
Chain of KRAS Q61H (P62937 whole entry): as the sequence (P62937 whole entry) above
Chain of KRAS G12D (P01116 1-169 isoform P01116-2 G12D limits assumed): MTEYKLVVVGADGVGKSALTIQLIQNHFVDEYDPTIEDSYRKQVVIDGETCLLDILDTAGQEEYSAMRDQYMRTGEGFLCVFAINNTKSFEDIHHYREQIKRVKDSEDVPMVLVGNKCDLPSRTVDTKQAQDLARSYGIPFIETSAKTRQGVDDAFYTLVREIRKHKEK
Chain of KRAS G12D (P62937 whole entry): as the sequence (P62937 whole entry) above
Chain of KRAS G12V (P01116 1-169 isoform P01116-2 G12V limits assumed): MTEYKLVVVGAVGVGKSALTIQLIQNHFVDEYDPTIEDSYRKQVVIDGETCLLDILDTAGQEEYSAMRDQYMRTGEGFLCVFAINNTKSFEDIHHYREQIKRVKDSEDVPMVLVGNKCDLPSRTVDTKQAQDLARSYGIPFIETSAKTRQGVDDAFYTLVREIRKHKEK
Chain of KRAS G12V (P62937 whole entry): as the sequence (P62937 whole entry) above
Chain of NRAS Q61K (P01111 whole entry Q61K): as the sequence (P01111 whole entry) above, with Q61K counted along it
Chain of NRAS Q61K (P62937 whole entry): as the sequence (P62937 whole entry) above

What is called IC50 is the midpoint of a concentration-inhibition curve. Take `CCn1c(-c2cc(N3CCN(C)CC3)cnc2[C@H](C)OC)c2c3cc(ccc31)-c1csc(n1)C[C@H](NC(=O)[C@H](C(C)C)N(C)C(=O)N1CCOCC1)C(=O)N1CCC[C@H](N1)C(=O)OCC(C)(C)C2` (atropisomer, axis not shown) [Example A555]: the IC50 in [1], in [2], in test [3], in [4], in test [5] and in test [6] was 0.01 to 0.1 µM in each case. The IC50 in test [7] was 0.01 to 0.1 µM; in test [8] it was 0.1 to 1 µM; in test [9], 0.01 to 0.1 µM; in test [10], 0.01 to 0.1 µM; in [11] it was 0.1 to 1 µM; in test [12], 0.01 to 0.1 µM. Besides, the IC50 in [13] and in test [14] was less than 0.01 µM throughout.
With `CCn1c(-c2cccnc2[C@H](C)OC)c2c3cc(ccc31)-c1csc(n1)C[C@H](NC(=O)[C@H](C(C)C)N(C)C(=O)N1CC3(CC(N(C)C)C3)C1)C(=O)N1CCC[C@H](N1)C(=O)OCC(C)(C)C2` (atropisomer, axis not shown) [Example A280], the IC50 in test [1] lay within 0.01 to 0.1 µM; in test [2], 0.01 to 0.1 µM; in test [3], 0.1 to 1 µM; in [4] it was 0.1 to 1 µM; in test [5] it was 0.1 to 1 µM; in test [6], 0.01 to 0.1 µM. Further, the IC50 was 0.1 to 1 µM in test [7]; 0.1 to 1 µM in test [8]; 0.1 to 1 µM in test [9]; 0.1 to 1 µM in test [10]; 0.1 to 1 µM in test [11]; 0.01 to 0.1 µM in test [12]. The IC50 in [13] and in test [14] was 0.01 to 0.1 µM throughout.
Regarding `CCn1c(-c2cccnc2[C@H](C)OC)c2c3cc(ccc31)-c1csc(n1)C[C@H](NC(=O)[C@H](C(C)C)N(C)C(=O)N1CC3(C1)CS(=O)(=O)CCN3C)C(=O)N1CCC[C@H](N1)C(=O)OCC(C)(C)C2` [Example A482], the concentration for half-maximal inhibition (IC50) fell in the range of 0.1 to 1 µM in test [1]; 0.1 to 1 µM in test [2]; 1 to 10 µM in test [3]; 1 to 10 µM in test [4]; 1 to 10 µM in [5]; 0.1 to 1 µM in test [6]. Besides, the IC50 in [7] was 1 to 10 µM; in test [8], more than 10 µM; in [9] it was 1 to 10 µM; in test [10], 1 to 10 µM; in test [11] it was 1 to 10 µM; in test [12], 1 to 10 µM. Also, the IC50 in [13] and in [14] was 0.1 to 1 µM each time.
For `CCn1c(-c2cccnc2[C@H](C)OC)c2c3cc(ccc31)-c1csc(n1)C[C@H](NC(=O)[C@H](C(C)C)N(C)C(=O)N(C)C1(COC)COC1)C(=O)N1CCC[C@H](N1)C(=O)OCC(C)(C)C2` [Example A455], the IC50 in test [1], in [2], in [3], in test [4], in test [5] and in test [6] was 0.1 to 1 µM in each case. The IC50 in test [7] fell in the range of 1 to 10 µM; in [8] it was 1 to 10 µM; in test [9], 1 to 10 µM; in test [10], 0.1 to 1 µM; in test [11], 1 to 10 µM; in test [12] it was 0.1 to 1 µM. The IC50 in test [13] and in [14] was 0.1 to 1 µM in each case.
